# *1 amine or outer side, *2 acyl side, *3 side chain or, on linkers, in order; H or OH if unused. Where a SMILES comes first, the peptide text is derived from it. [ ]: non-standard residue; d: D form. Cha = N[C@@H](CC1CCCCC1)C(=O)O; Suc = O=C(CCC(=O)[*:2])[*:1]
# Test system: Fibrin-Clot
# Test: Fibrin-Clot Inhibition
# Assay type: biochemical
row,SMILES,IC50 [nM]
1,"CC(C)C[C@H](NC(=O)[C@H](CO)NC(=O)[C@H](Cc1ccccc1)NC(=O)[C@H](CCC(=O)O)NC(=O)[C@H](CCC(=O)O)NC(=O)[C@H](Cc1ccccc1)NC(=O)CCC(=O)O)C(=O)N[C@@H](CC(=O)O)C(=O)N[C@@H](CC(=O)O)C(=O)N[C@@H](CC1CCCCC1)C(=O)N[C@@H](CCC(=O)O)C(=O)N[C@@H](CCC(N)=O)C(=O)O [Example 7, Suc-Phe-Glu-Glu-Phe-Ser-Leu-Asp-Asp-Cha-Glu-Gln-OH] (Suc-FEEFSLDD[Cha]EQ-OH)",7100
2,"CC[C@H](C)[C@H](NC(=O)[C@H](CC(=O)O)NC(=O)[C@H](CC(=O)O)NC(=O)[C@H](CC(C)C)NC(=O)[C@@H]1CCCN1C(=O)[C@@H](Cc1ccccc1)NC(=O)[C@H](CCC(=O)O)NC(=O)[C@H](CCC(=O)O)NC(=O)[C@H](Cc1ccccc1)NC(=O)CCC(=O)O)C(=O)N[C@@H](CCC(=O)O)C(=O)N[C@@H](CCC(N)=O)C(=O)O [Example 6, Suc-Phe-Glu-Glu-phe-Pro-Leu-Asp-Asp-Ile-Glu-Gln-OH] (Suc-FEE[dF]PLDDIEQ-OH)",2300
3,"CC[C@H](C)[C@H](NC(=O)[C@H](CC(=O)O)NC(=O)[C@H](CC(=O)O)NC(=O)[C@H](CC(C)C)NC(=O)[C@H](CO)NC(=O)[C@H](Cc1ccccc1)NC(=O)[C@H](CCC(=O)O)NC(=O)[C@H](CCC(=O)O)NC(=O)[C@H](Cc1ccccc1)NC(=O)CCC(=O)O)C(=O)N[C@@H](CCC(=O)O)C(=O)N[C@@H](CCC(N)=O)C(=O)O [Example 4, Suc-Phe-Glu-Glu-Phe-Ser-Leu-Asp-Asp-Ile-Glu-Gln-OH] (Suc-FEEFSLDDIEQ-OH)",2700
4,"CC[C@H](C)[C@H](NC(=O)[C@H](CC(=O)O)NC(=O)[C@H](CC(=O)O)NC(=O)[C@H](CC(C)C)NC(=O)[C@H](CO)NC(=O)[C@H](Cc1ccccc1)NC(=O)[C@@H]1CCCN1C(=O)[C@H](CCC(=O)O)NC(=O)[C@H](Cc1ccccc1)NC(=O)CCC(=O)O)C(=O)N[C@@H](CCC(=O)O)C(=O)N[C@@H](CCC(N)=O)C(=O)O [Example 5, Suc-Phe-Glu-Pro-Phe-Ser-Leu-Asp-Asp-Ile-Glu-Gln-OH] (Suc-FEPFSLDDIEQ-OH)",1800

# Source: patent publication US5495000A, “Anticoagulant peptides” (Merrell Pharmaceuticals Inc., priority 1995, dated 1996)
